Laboratory results reported in patent publication US20220372441A1, “MICRORNAS ENRICHED IN MEGAKARYOCYTIC EXTRACELLULAR VESICLES AND USES THEREOF” (University of Delaware, priority 2019, published 2022).

Legend:
[1] = system: CD34+ HSPCs; assay: Signaling-inhibitor experiments: MkMP-induced Mk differentiation of inhibitor-pretreated CD34+ HSPCs; conditions: for percent of cells CD34−CD41+: day 12, representative quadrant plots (FIG. 11E); for fraction of cells CD34+CD41−: day 7, representative quadrant plots (FIG. 11E)
Protocol: Signaling-inhibitor experiments: 60,000 CD34^+ HSPCs were pretreated with signaling inhibitors for 30 min, followed by co-culture with MkMPs (30 MPs per cell) in IMDM supplemented with 10% BIT 9500 and 50 ng/mL SCF. Inhibitors were replenished at days 3 and 7. At day 4, 7 and 12, cells were harvested for flow cytometric analysis of CD41, CD42b, and CD34 expression. Total-cell and Mk counts were measured at day 7.
To further investigate the effects of MkMPs in promoting megakaryocytic differentiation of CD34^+ HSPCs, and how this might relate to the miR content of MkMPs, we next probed likely signaling pathways using kinase inhibitors. […] Briefly, CD34^+ HSPCs were pretreated with kinase inhibitors of chosen signaling pathways (JNK, p38, MEK, PI3K, Akt and mTOR inhibitors, Table 6) for 30 min before they were co-cultured with MkMPs at the ratio of 10 MkMPs/cell. Inhibitors were replenished at days 3 and 7. CD41, CD42b and CD34 expression, and cell numbers were measured at days 4, 7, and 12.

[2] = system: PTEN; assay: PTEN protein expression by flow cytometry in CD34+ HSPCs; format: cell-based, human; conditions: JNK inhibitor pretreatment, MkMP co-culture 24 hours (FIG. 13A)
Protocol: Cells were fixed in 4% paraformaldehyde for 15 min at room temperature, followed by the permeabilization in 90% methanol for 30 min at 4° C. After washing in PBS, cells were stained with Alexa 647-conjugated anti-mTOR (#5048S), PE-conjugated anti-Akt (#8790S), or Alexa 488-conjugated anti-p-Akt (#4071S) antibodies from Cell Signaling, or Alexa 647-conjugated anti-p-mTOR (#564242) from BD bioscience, for 1 hour at room temperature, followed by flow-cytometric analysis.
Phosphatase and TENsin homolog (PTEN) is a negative regulator of PI3K/Akt signaling in HSC development. Loss of PTEN results in enhanced cellular proliferation and megakaryopoiesis due to overactive of PI3K/Akt signaling. We hypothesized that activation of PI3K/Akt/mTOR signaling by MkMPs might be PTEN mediated. We thus examined the mRNA level of PTEN by quantitative PCR, and PTEN protein level by flow cytometry and immunoblotting. The impact on PTEN mRNA levels appears higher than that on protein levels. Compared to the vehicle control, PTEN protein or mRNA levels were around 10% or 30% lower, respectively, in HSPCs co-cultured with MkMPs (FIGS. 13A and 13B). […] These statistically-significant but relatively low-impact effects on PTEN protein expression would be expected given that the measurements were done within the first 24 hours of the co-culture, rather than late in the co-culture.

[3] = system: PTEN; assay: PTEN mRNA level by qRT-PCR in CD34+ HSPCs; format: cell-based, human; conditions: JNK inhibitor pretreatment, MkMP co-culture 24 hours (FIG. 13B)
Protocol: Quantitative reverse transcription PCR (qRT-PCR): CD34^+ HSPCs pretreated with JNK inhibitor or solution without an inhibitor were co-cultured with MkMPs, non-targeting miR-loaded MkMPs, miR-486-5p inhibitor-loaded MkMPs at 30 MPs per cell, or vehicle control. At 24 hr, cells were harvested and total RNA was isolated, reversed transcribed for qPCR assay as described by Kao and Papoutsakis (Sci Adv. 2018; 4:eaau6762). qPCR assays for PTEN and GAPDH were performed with PerfeCTa SYBR Green Supermix (QuantaBio) and the following primers: Forward (5′-[…]-3′) (SEQ ID NO: 1), Reverse (5′-[…]-3′) (SEQ ID NO: 2) for PTEN, and Forward (5′-[…]-3′) (SEQ ID NO: 3), Reverse (5′-[…]-3′) (SEQ ID NO: 4) for GAPDH. PTEN mRNA level were quantified by normalized to GAPDH mRNA level as the reference gene.
Phosphatase and TENsin homolog (PTEN) is a negative regulator of PI3K/Akt signaling in HSC development. Loss of PTEN results in enhanced cellular proliferation and megakaryopoiesis due to overactive of PI3K/Akt signaling. We hypothesized that activation of PI3K/Akt/mTOR signaling by MkMPs might be PTEN mediated. We thus examined the mRNA level of PTEN by quantitative PCR, and PTEN protein level by flow cytometry and immunoblotting. The impact on PTEN mRNA levels appears higher than that on protein levels. […]

[4] = system: CD34+ HSPCs; assay: Transfection of CD34+ HSPCs with miR mimics, culture without TPO; flow cytometry of CD41/CD42b, Mk and total cell counts; format: cell-based, human
Protocol: Transfection of CD34^+ HSPCs with miR mimics: 200,000 CD34^+ cells were freshly thawed and cultured in IMDM supplemented with 20% BIT 9500, and 100 ng/mL SCF. After 3 hours, cells were transfected with 8 μM of miR mimics, non-targeting miR (miR-NC), or without miR (No miR) using the Amaxa Nucleofector II with program U-08. […] Cells cultured in TPO-supplemented medium (100 ng/ml TPO), or co-cultured with MkMPs served as positive controls (TPO, MkMP). The medium was replaced one day after transfection. […] At day 13, cells were harvested for serotonin (5-HT), von willebrand factor (vWF), beta 1 tubulin (TUBB1), and DAPI staining, as described^7. The images were taken by ZEISS LSM 880 multiphoton confocal microscope. At day 16, cells were harvested for ploidy analysis by flow-cytometric analysis as described by Lindsey and Papoutsakis (Br J Haematol. 2011; 152(4):469-484).
To determine if there is a dose effect of miR mimics on Mk differentiation of HSPCs, using CD41 expression as the key early Mk-differentiation marker, we carried out a pilot study with two donor CD34^+-cell samples. CD34^+ HSPCs were transfected with high (8 μM) or low (2 μM) concentrations of miR-486-5p or miR-22-3p (generally known as miR-22) mimics were and cultured without TPO. […]

[5] = day 7, MkMP co-culture, inhibitor 10 uM (FIG. 11A)

| Compound | percent of cells CD34−CD41+ [1] [%] | CD41 expression [1, 5] [%] | fraction of cells CD34+CD41− [1] [%] | also measured |
| --- | --- | --- | --- | --- |
| O=c1cc(N2CCOCC2)oc2c(-c3ccccc3)cccc12 [LY-294002] | 16.5 | – | – | – |
| CO[C@H]1C[C@@H]2CC[C@@H](C)[C@@](O)(O2)C(=O)C(=O)N2CCCC[C@H]2C(=O)O[C@H]([C@H](C)C[C@@H]2CC[C@@H](O)[C@H](OC)C2)CC(=O)[C@H](C)/C=C(\C)[C@@H](O)[C@@H](OC)C(=O)[C@H](C)C[C@H](C)/C=C/C=C/C=C/1C [Rapamycin] | 6.0 | 32.1 | 48.3 | – |
| C[S+]([O-])c1ccc(-c2nc(-c3ccncc3)c(-c3ccc(F)cc3)[nH]2)cc1 (centres unmarked) [SB203580] | – | – | 43.4 | CD41 expression ([1]; day 12, MkMP co-culture, compared to MkMP control (FIG. 11B)): significantly suppressed CD41 expression |
| Oc1c2ccccc2c2c3c(cccc13)N=N2 [SP600125] | 12.6 | 32.8 | 52.1 | PTEN protein level above vehicle-control level [2]: 17%; PTEN mRNA level above vehicle-control level [3]: 260% |
| COC[C@H]1OC(=O)c2coc3c2[C@@]1(C)C1=C(C3=O)[C@@H]2CCC(=O)[C@@]2(C)C[C@H]1OC(C)=O [Wortmannin] | 25.3 | – | – | – |
| TPO: recombinant human thrombopoietin, 100 ng/ml, positive control | – | – | – | percent of cells expressing CD41 ([4]; day 13, electroporated CD34+ cells, miR mimics without TPO, TPO 100 ng/ml or MkMP co-culture as positive controls (FIGS. 7A, 7B)): 56%; percent CD41+CD42b+ double positive cells ([4]; day 13, representative quadrant plots (FIG. 7D)): 38.9% |
